From patent US7247617B2, “Sixteen-member macrolide antiinfective agents” (Kosan Biosciences Incorporated, priority 2004, dated 2007)

How the values were obtained:
E. faecalis = test: Biological activity against bacterial strains: E. faecalis; assay type: cell-based, Enterococcus faecalis; settings: strain ATCC51575
S. epidermidis = test: Biological activity against bacterial strains: S. epidermidis; assay type: cell-based, Staphylococcus epidermidis; settings: strain ATCC12228
S. pneumoniae = test: Biological activity against bacterial strains: S. pneumoniae; assay type: cell-based, Streptococcus pneumoniae; design: Biological Activity, S. pneumoniae ATCC6301 / Biological Activity, S. pneumoniae ATCC700671 / Biological Activity, S. pneumoniae ATCC700676* / Biological Activity, S. pneumoniae ATCC700677* / Biological Activity, S. pneumoniae ATCC700905* / Biological Activity, S. pneumoniae ATCC700906* / Biological Activity, S. pneumoniae ATCC49619: unit not given here; settings: for Biological Activity, S. pneumoniae ATCC6301: strain ATCC6301; for Biological Activity, S. pneumoniae ATCC49619: strain ATCC49619; for Biological Activity, S. pneumoniae ATCC700671: strain ATCC700671; for Biological Activity, S. pneumoniae ATCC700676*: strain ATCC700676, macrolide resistant strain; for Biological Activity, S. pneumoniae ATCC700677*: strain ATCC700677, macrolide resistant strain; for Biological Activity, S. pneumoniae ATCC700905*: strain ATCC700905, macrolide resistant strain; for Biological Activity, S. pneumoniae ATCC700906*: strain ATCC700906, macrolide resistant strain
S. aureus = test: Biological activity against bacterial strains: S. aureus; assay type: cell-based, Staphylococcus aureus; design: unit not given here; settings: for Biological Activity, S. aureus ATCC6538p: strain ATCC6538p; for Biological Activity, S. aureus ATCC14154*: strain ATCC14154, macrolide resistant strain; for Biological Activity, S. aureus ATCC29213: strain ATCC29213; for Biological Activity, S. aureus ATCC33591*: strain ATCC33591, macrolide resistant strain; for Biological Activity, S. aureus ATCCBAA-39*: strain ATCCBAA-39, macrolide resistant strain; for Biological Activity, S. aureus ATCCBAA-44*: strain ATCCBAA-44, macrolide resistant strain

Row | Compound | Biological Activity, E. faecalis ATCC51575 (E. faecalis) | Biological Activity, S. epidermidis ATCC12228 (S. epidermidis) | Biological Activity, S. pneumoniae ATCC6301 (S. pneumoniae) | Biological Activity, S. pneumoniae ATCC49619 (S. pneumoniae) | Biological Activity, S. pneumoniae ATCC700671 (S. pneumoniae) | Biological Activity, S. pneumoniae ATCC700676* (S. pneumoniae) | Biological Activity, S. pneumoniae ATCC700677* (S. pneumoniae) | Biological Activity, S. pneumoniae ATCC700905* (S. pneumoniae) | Biological Activity, S. pneumoniae ATCC700906* (S. pneumoniae) | Biological Activity, S. aureus ATCC6538p (S. aureus) | Biological Activity, S. aureus ATCC14154* (S. aureus) | Biological Activity, S. aureus ATCC29213 (S. aureus) | Biological Activity, S. aureus ATCC33591* (S. aureus) | Biological Activity, S. aureus ATCCBAA-39* (S. aureus) | Biological Activity, S. aureus ATCCBAA-44* (S. aureus)
1 | CCC1OC(=O)CC(O)C(C)C(OC2OC(C)C(O)C(N(C)C)C2O)C(CCN2CC(C)CC(C)C2)CC(C)C(=NOCCCOc2ccc3ncccc3c2)C=CC(C)=CC1COC1OC(C)C(O)C(OC)C1OC (single isomer, unassigned) [Compound L] | >12.5 | 0.20 | 0.01 | 0.025 | 0.01 | 0.049 | 0.025 | 0.098 | >12.5 | 0.20 | 0.20 | 0.20 | >12.5 | >12.5 | >12.5
2 | CCC1OC(=O)CC(O)C(C)C(OC2OC(C)C(O)C(N(C)C)C2O)C(CCN2CC(C)CC(C)C2)CC(C)C(=NOCCCCOc2ccc3ncccc3c2)C=CC(C)=CC1COC1OC(C)C(O)C(OC)C1OC (single isomer, unassigned) [Compound M] | >12.5 | 1.56 | 0.01 | 0.01 | 0.01 | 1.56 | 6.25 | 1.56 | >12.5 | 0.78 | 1.56 | 1.56 | >12.5 | >12.5 | >12.5
3 | CCC1OC(=O)CC(O)C(C)C(OC2OC(C)C(O)C(N(C)C)C2O)C(CCN2CC(C)CC(C)C2)CC(C)C(=NOCCCCOc2ccc3ncccc3c2)C=CC(C)=CC1COC1OC(C)C(O)C(OC)C1OC (single isomer, unassigned) [Compound N] | >12.5 | 3.12 | 0.025 | 0.098 | 0.049 | 1.56 | 6.25 | 0.78 | >12.5 | 0.78 | 1.56 | 3.12 | >12.5 | >12.5 | >12.5
4 | CCC1OC(=O)CC(O)C(C)C(OC2OC(C)C(O)C(N(C)C)C2O)C(CCN2CC(C)CC(C)C2)CC(C)C(=NOCc2ccc(F)cc2)C=CC(C)=CC1COC1OC(C)C(O)C(OC)C1OC (single isomer, unassigned) [Compound P] | >12.5 | 0.78 | 0.39 | 0.78 | 0.78 | 3.12 | 6.25 | 3.12 | 12.5 | 0.39 | 6.25 | 0.78 | >12.5 | >12.5 | >12.5
5 | CCC1OC(=O)CC(O)C(C)C(OC2OC(C)C(O)C(N(C)C)C2O)C(CCN2CC(C)CC(C)C2)CC(C)C(=NOCc2ccc(F)cc2)C=CC(C)=CC1COC1OC(C)C(O)C(OC)C1OC (single isomer, unassigned) [Compound Q] | >12.5 | 0.78 | 0.20 | 0.39 | 0.39 | 0.78 | 6.25 | 0.78 | 12.5 | 0.20 | 0.78 | 0.78 | 12.5 | >12.5 | >12.5
6 | CCC1OC(=O)CC(O)C(C)C(OC2OC(C)C(O)C(N(C)C)C2O)C(CCN2CC(C)CC(C)C2)CC(C)C(=NOCCCCOc2ccc3ncccc3c2)C=CC(C)=CC1CO (single isomer, unassigned) [Compound T] | >12.5 | >12.5 | 1.56 | 6.25 | 3.12 | 6.25 | >12.5 | 6.25 | >12.5 | 6.25 | >12.5 | 12.5 | >12.5 | >12.5 | >12.5
7 | CCC1OC(=O)CC(O)C(C)C(OC2OC(C)C(O)C(N(C)C)C2O)C(CCN2CC(C)CC(C)C2)CC(C)C(=NOCCCCOc2ccc3ncccc3c2)C=CC(C)=CC1CO (single isomer, unassigned) [Compound U] | >12.5 | >12.5 | 6.25 | 12.5 | 12.5 | >12.5 | >12.5 | 12.5 | >12.5 | >12.5 | >12.5 | >12.5 | >12.5 | >12.5 | >12.5
8 | CCC1OC(=O)CC(O)C(C)C(OC2OC(C)C(O)C(N(C)C)C2O)C(CC=O)CC(C)C(=NOCCCCOc2ccc3ncccc3c2)C=CC(C)=CC1CO (stereo not drawn) [Compound B] | >12.5 | 0.20 | 0.025 | 0.01 | 0.025 | 0.025 | 0.39 | 0.025 | >12.5 | 0.20 | 0.78 | 0.78 | >12.5 | >12.5 | >12.5
